# The source made the active and inactive calls. No cut-off for these calls is given here.
# Tested on: MCF7
# Assay: Cytotoxicity against human MCF7 cells assessed as inhibition of cell proliferation after 3 days by MTT assay
# Assay type: functional, cell-based
# Conditions: MCF7, 72 h
row,Structure (SMILES),IC50 [µM]
1,Cc1cc(=O)oc2cc(OCC(=O)NNC(=O)CN3CCOCC3)ccc12,37.3
2,Cc1cc(=O)oc2ccc(NC(=O)c3ccccc3)cc12,4.6
3,CN1CCN(S(=O)(=O)c2ccc3oc(=O)c(Br)cc3c2)CC1,31.4
4,O=c1oc2ccc(S(=O)(=O)N3CCCCC3)cc2cc1Br,2.07
5,O=c1oc2ccc(S(=O)(=O)NCc3ccc4c(c3)OCO4)cc2cc1Br,7.79
6,Cc1cc(=O)oc2cc(OCC(=O)N/N=C/c3ccc(F)cc3)ccc12,9.78
7,Cc1cc(=O)oc2ccc(N3C(=O)c4ccccc4C3=O)cc12,4.17
8,Cc1cc(=O)oc2cc(OCC(=O)Nn3c(=O)[nH]c4ccccc4c3=O)ccc12,1.65
9,Cc1cc(=O)oc2cc(OCC(=O)N/N=C/c3ccc([N+](=O)[O-])cc3)ccc12,5.59
10,Cc1cc(=O)oc2cc(OCC(=O)NNCc3ccccc3)ccc12,1.24
11,Cc1cc(=O)oc2cc(OCC(=O)N/N=C/c3ccc(N(C)C)cc3)ccc12,5.54
12,Cc1cc(=O)oc2cc(OCC(=O)NN3C(=O)c4ccccc4C3=O)ccc12,14.7
13,COc1cc(OC)c(CNS(=O)(=O)c2ccc3oc(=O)c(Br)cc3c2)c(OC)c1,5.76
14,Cc1cc(=O)oc2cc(OCC(=O)NNC(=O)c3ccccc3)ccc12,7.89
15,Cc1cc(=O)oc2cc(OCC(=O)NN(C(=O)c3ccncc3)C(=O)c3ccncc3)ccc12,8.68
16,Cc1cc(=O)oc2cc(OCC(=O)NNC(=O)CN3CCN(C)CC3)ccc12,6.68
17,O=c1oc2ccc(S(=O)(=O)N3CCOCC3)cc2cc1Br,13.2
18,Cc1ccc(/C=N/NC(=O)COc2ccc3c(C)cc(=O)oc3c2)o1,3.19
19,Cc1cc(=O)oc2cc(OCC(=O)NN3C(=O)C=CC3=O)ccc12,2.11
20,O=c1oc2ccc(S(=O)(=O)Nc3nc4ccccc4[nH]3)cc2cc1Br,3.65

# Target: Vascular endothelial growth factor receptor 2 (Homo sapiens, UniProt P35968)
# Assay: Inhibition of VEGFR2 in human MCF7 cells by horseradish peroxidase-coupled TMB substrate based ELISA
# Assay type: cell-based
# Conditions: not given
# Vascular endothelial growth factor receptor 2, sequence (P35968 whole entry): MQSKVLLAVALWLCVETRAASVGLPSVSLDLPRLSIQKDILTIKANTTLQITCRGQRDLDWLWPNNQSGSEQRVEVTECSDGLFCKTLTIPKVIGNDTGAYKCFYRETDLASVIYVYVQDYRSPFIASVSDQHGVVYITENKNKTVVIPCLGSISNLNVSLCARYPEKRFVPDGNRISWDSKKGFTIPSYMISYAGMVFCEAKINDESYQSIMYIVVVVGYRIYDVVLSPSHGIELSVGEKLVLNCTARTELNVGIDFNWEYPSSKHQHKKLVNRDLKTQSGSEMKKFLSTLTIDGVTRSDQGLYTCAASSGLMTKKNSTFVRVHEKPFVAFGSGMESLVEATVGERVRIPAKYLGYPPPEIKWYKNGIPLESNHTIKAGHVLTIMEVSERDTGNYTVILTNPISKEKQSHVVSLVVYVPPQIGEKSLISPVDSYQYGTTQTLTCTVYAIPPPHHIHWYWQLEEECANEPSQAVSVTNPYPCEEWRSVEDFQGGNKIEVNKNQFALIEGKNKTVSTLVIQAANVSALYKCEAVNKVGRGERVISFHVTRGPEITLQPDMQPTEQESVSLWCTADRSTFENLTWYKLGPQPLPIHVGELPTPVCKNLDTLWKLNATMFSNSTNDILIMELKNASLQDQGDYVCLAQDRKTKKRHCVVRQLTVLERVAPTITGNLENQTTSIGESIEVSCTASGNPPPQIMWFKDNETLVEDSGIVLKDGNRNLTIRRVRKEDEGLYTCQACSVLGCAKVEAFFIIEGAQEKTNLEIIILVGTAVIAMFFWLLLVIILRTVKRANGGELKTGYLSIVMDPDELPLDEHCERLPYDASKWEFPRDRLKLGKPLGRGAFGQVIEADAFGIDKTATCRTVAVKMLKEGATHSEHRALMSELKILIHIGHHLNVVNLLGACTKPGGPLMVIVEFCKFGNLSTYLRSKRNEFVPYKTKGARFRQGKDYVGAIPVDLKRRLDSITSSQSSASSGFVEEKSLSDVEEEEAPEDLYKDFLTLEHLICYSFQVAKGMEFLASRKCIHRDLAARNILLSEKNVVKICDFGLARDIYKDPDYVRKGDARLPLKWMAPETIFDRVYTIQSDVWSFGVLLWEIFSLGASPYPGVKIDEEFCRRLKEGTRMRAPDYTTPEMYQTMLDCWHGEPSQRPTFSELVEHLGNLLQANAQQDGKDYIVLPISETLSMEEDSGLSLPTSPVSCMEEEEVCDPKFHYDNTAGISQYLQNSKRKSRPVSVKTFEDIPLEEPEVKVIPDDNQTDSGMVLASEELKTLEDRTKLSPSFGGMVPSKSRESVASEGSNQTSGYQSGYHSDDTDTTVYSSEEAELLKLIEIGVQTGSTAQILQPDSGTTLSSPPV
row,Structure (SMILES),IC50 [µM]
1,Cc1cc(=O)oc2cc(OCC(=O)Nn3c(=O)[nH]c4ccccc4c3=O)ccc12,0.66
2,Cc1cc(=O)oc2cc(OCC(=O)NNCc3ccccc3)ccc12,0.36

# Tested on: MCF7
# Assay: Cell cycle arrest in human MCF7 cells assessed as accumulation at G2/M phase after 48 hrs by propidium iodide/RNase A staining based flow cytometry analysis
# Assay type: functional
# Conditions: not given
row,Structure (SMILES),Activity
1,Cc1cc(=O)oc2cc(OCC(=O)NNCc3ccccc3)ccc12,Active

# Tested on: MCF7
# Assay: Cell cycle arrest in human MCF7 cells assessed as induction of preG1 apoptosis after 48 hrs by propidium iodide/RNase A staining based flow cytometry analysis
# Assay type: functional
# Conditions: not given
row,Structure (SMILES),Activity
1,Cc1cc(=O)oc2cc(OCC(=O)NNCc3ccccc3)ccc12,Active

# Tested on: MCF7
# Assay: Induction of apoptosis in human MCF7 cells assessed as necrotic cells at after 48 hrs by Annexin V-FITC/propidium iodide staining based flow cytometric analysis (reference value: 0.41 %)
# Assay type: functional
# Conditions: not given
row,Structure (SMILES),Activity [%]
1,CN[C@@H]1C[C@H]2O[C@@](C)([C@@H]1OC)n1c3ccccc3c3c4c(c5c6ccccc6n2c5c31)C(=O)NC4 [STAUROSPORINE],2.33
2,Cc1cc(=O)oc2cc(OCC(=O)NNCc3ccccc3)ccc12,1.92

# Tested on: MCF7
# Assay: Induction of apoptosis in human MCF7 cells assessed as early apoptotic cells after 48 hrs by Annexin V-FITC/propidium iodide staining based flow cytometric analysis (reference value: 1.56 %)
# Assay type: functional
# Conditions: not given
row,Structure (SMILES),Activity [%]
1,CN[C@@H]1C[C@H]2O[C@@](C)([C@@H]1OC)n1c3ccccc3c3c4c(c5c6ccccc6n2c5c31)C(=O)NC4 [STAUROSPORINE],8.16
2,Cc1cc(=O)oc2cc(OCC(=O)NNCc3ccccc3)ccc12,6.72

# Tested on: MCF7
# Assay: Induction of apoptosis in human MCF7 cells assessed as late apoptotic cells after 48 hrs by Annexin V-FITC/propidium iodide staining based flow cytometric analysis (reference value: 0.3 %)
# Assay type: functional
# Conditions: not given
row,Structure (SMILES),Activity [%]
1,CN[C@@H]1C[C@H]2O[C@@](C)([C@@H]1OC)n1c3ccccc3c3c4c(c5c6ccccc6n2c5c31)C(=O)NC4 [STAUROSPORINE],11.27
2,Cc1cc(=O)oc2cc(OCC(=O)NNCc3ccccc3)ccc12,17.78

# Tested on: MCF7
# Assay: Induction of apoptosis in human MCF7 cells assessed as up regulation of caspase 9 expression by measuring caspase 9 level by ELISA (reference value: 1.223 ng/ml)
# Assay type: functional
# Conditions: not given
row,Structure (SMILES),Activity [ng/mL]
1,CN[C@@H]1C[C@H]2O[C@@](C)([C@@H]1OC)n1c3ccccc3c3c4c(c5c6ccccc6n2c5c31)C(=O)NC4 [STAUROSPORINE],8.41
2,Cc1cc(=O)oc2cc(OCC(=O)NNCc3ccccc3)ccc12,8.015

# Tested on: PC-3
# Assay: Cytotoxicity against human PC3 cells assessed as inhibition of cell proliferation after 3 days by MTT assay
# Assay type: functional, cell-based
# Conditions: not given
row,Structure (SMILES),inhibition
1,Cc1cc(=O)oc2cc(OCC(=O)NNC(=O)CN3CCOCC3)ccc12,inactive
2,Cc1cc(=O)oc2ccc(NC(=O)c3ccccc3)cc12,inactive
3,CN1CCN(S(=O)(=O)c2ccc3oc(=O)c(Br)cc3c2)CC1,inactive
4,O=c1oc2ccc(S(=O)(=O)N3CCCCC3)cc2cc1Br,inactive
5,O=c1oc2ccc(S(=O)(=O)NCc3ccc4c(c3)OCO4)cc2cc1Br,inactive
6,Cc1cc(=O)oc2cc(OCC(=O)N/N=C/c3ccc(F)cc3)ccc12,inactive
7,Cc1cc(=O)oc2ccc(N3C(=O)c4ccccc4C3=O)cc12,inactive
8,Cc1cc(=O)oc2cc(OCC(=O)Nn3c(=O)[nH]c4ccccc4c3=O)ccc12,inactive
9,Cc1cc(=O)oc2cc(OCC(=O)N/N=C/c3ccc([N+](=O)[O-])cc3)ccc12,inactive
10,Cc1cc(=O)oc2cc(OCC(=O)NNCc3ccccc3)ccc12,inactive
11,Cc1cc(=O)oc2cc(OCC(=O)N/N=C/c3ccc(N(C)C)cc3)ccc12,inactive
12,Cc1cc(=O)oc2cc(OCC(=O)NN3C(=O)c4ccccc4C3=O)ccc12,inactive
13,COc1cc(OC)c(CNS(=O)(=O)c2ccc3oc(=O)c(Br)cc3c2)c(OC)c1,inactive
14,Cc1cc(=O)oc2cc(OCC(=O)NNC(=O)c3ccccc3)ccc12,inactive
15,Cc1cc(=O)oc2cc(OCC(=O)NN(C(=O)c3ccncc3)C(=O)c3ccncc3)ccc12,inactive
16,Cc1cc(=O)oc2cc(OCC(=O)NNC(=O)CN3CCN(C)CC3)ccc12,inactive
17,O=c1oc2ccc(S(=O)(=O)N3CCOCC3)cc2cc1Br,inactive
18,Cc1ccc(/C=N/NC(=O)COc2ccc3c(C)cc(=O)oc3c2)o1,inactive
19,Cc1cc(=O)oc2cc(OCC(=O)NN3C(=O)C=CC3=O)ccc12,inactive
20,O=c1oc2ccc(S(=O)(=O)Nc3nc4ccccc4[nH]3)cc2cc1Br,inactive

# — ChEMBL document CHEMBL4627262, “VEGFR-2 inhibiting effect and molecular modeling of newly synthesized coumarin derivatives as anti-breast cancer agents” (Bioorg Med Chem, 2020)
